# Measurements from patent US20160271072A1, “POLYMER NANOPARTICLES CONTAINING MULTIPLE AGENTS AND METHODS THEREOF” (THE UNIVERSITY OF NORTH CAROLINA AT CHAPEL HILL, priority 2013, published 2016).
# Assays:
# [1] = Serum biochemical value analysis, hematology and organ H&E; format: in vivo, mice; settings: for blood cell counts (RBC, PLT, WBC, HCT, HGB) vs untreated control: healthy nude mice, three dosages; for ALT / AST / BUN / Creatinine: serum after three injections, n = 5
# Procedure: After three injections, blood was collected and centrifuged at 4000 rpm for 5 min to obtain the serum. Blood urea nitrogen (BUN), creatinine, serum aspartate aminotransferase (AST) and alanine aminotransferase (ALT) levels, were assayed as indicators of renal and hepatic function. Whole blood was collected from healthy nude mice after three repeated treatments. Red blood cells (RBC), white blood cells (WBC), platelets (PLT), hemoglobin (HGB) and hematocrits (HCT) were counted for the detection of myelosuppression. Organs (heart, liver, spleen, lung, and kidney) were fixed and sectioned for H&E staining as to evaluate the organ-specific toxicity.
# [2] = Drug loading and encapsulation efficiency of cores and PLGA NPs; format: physicochemical; settings: DOPA coated cores encapsulated separately, DL up to approximately 5 wt %; n=5
# Procedure: The loading and encapsulation efficiency of Rapamycin was measured using High-performance Liquid Chromatography (HPLC, Waters, λ=277 nm); the loading and encapsulation efficiency of CDDP was measured using Inductively Coupled Plasma-Mass Spectroscopy (ICP-MS, NexION™ 300, Perkin Elmer Inc); the loading efficiency of GMP was measured both by Ultraviolet-visible spectrometer (UV, DU®800, Beckman Coulter) and ^3H labeled CMP incorporation using a Liquid Scintillation Analyzer (TRI-CARB 2900 TR, Packard Bioscience Co). The size distribution of particle was determined using a Malvern ZetaSizer Nano series (Westborough, Mass.). TEM images of NPs were acquired using a JEOL 100CX II TEM (JEOL, Japan). The NPs were negatively stained with 2% uranyl acetate. Approximately 100 NPs were analyzed for calculating the average number of CDDP cores per PLGA NP.
# DL and EE of cisplatin were measured using Inductively Coupled Plasma-Mass Spectroscopy (ICP-MS, NexION™ 300, Perkin Elmer Inc); LE and EE of GMP were both measured by Ultraviolet-Visible Spectroscopy (UV, DU®800, Beckman Coulter) and ^3H labeled cytidine 5′ monophosphate (CMP) [5-^3H] disodium salt (Moravek Bio Inc, 1 mCi/mL) incorporation using a Liquid Scintillation Analyzer (TRI-CARB 2900 TR, Packard Bioscience Co). The size distribution of particles was determined using a Malvern ZetaSizer Nano series (Westborough, Mass.). […]
# A375-luc cells = experiment: Cell viability (MTS) and Chou-Talalay drug combination analysis in A375-luc cells; format: cell-based; settings: single agent, free or in NP, 2 days drug exposure
# Procedure: Cells were seeded in 96-well plates for 24 h at a density of 2×10^3 cells/well. Cell masses that were viable after 2 days of drug exposure were determined by MTS assay. A CellTiter 96 AQueous One Solution Cell Proliferation Assay (Promega, Madison, Wis.) kit containing the tetrazolium compound MTS was used to assay cell viability according to the manufacturer's protocols.
# Drug combination analysis was performed by using the method described by Chou and Talalay.
# We evaluated the degree of synergy between RAPA and CDDP in terms of cytotoxicity toward A375-luc cells in culture. […] The cytotoxicity of combined CDDP and RAPA was enhanced by NP delivery over free drug combination.
# UMUC3 cells = experiment: MTT cell viability and combination index on UMUC3 cells; format: cell-based, human; settings: 48 h treatment
# Procedure: MTT (3-[4,5-dimethylthiazol-2-yl]-2,5-diphenyltetrazolium bromide) assay was conducted to detect in vitro viability of free GMP, cisplatin and their combinations as well as PLGA GMP NP, PLGA cisplatin NP and PLGA Combo NP. In Brief, cells were seeded in 96-well plates with a density of 3,000 cells per well 24 h prior to drug treatment. On the second day, cells were treated with free drugs or the drug combination at a series of dilutions with various molar ratios. Forty-eight h post treatment, 20 μL of MTT (5 mg/mL) reagent was added for another 4 h at 37° C. The medium was then discarded and the formed formazan salt was dissolved in 150 μL of DMSO. The absorbance in each well was read at the wavelength of 570 nm using a multidetection microplate reader (Plate […]). Each concentration was tested in five wells and data presented as mean±SD. […] Combination Index (CI) Analysis of free drug combination based on the Chou and Talalay method (T. C. Chou, P. Talalay, Adv. Enzyme Regul. 1984, 22, 27) was conducted using CompuSyn software. Briefly, for each level of Fa, the CI values of cisplatin and GMP combinations were calculated according to the following equation: […] CI values of the drug combinations were drawn as a function of Fa. […] (Y. Han, Z. He, […]. Bronich, R. Jordan, […], Mol. Pharm. 2012, 9, 2302).
# [3] = tested on: stroma-rich UMUC3 bladder cancer xenograft; experiment: Anti-tumor efficacy in stroma-rich UMUC3 bladder cancer xenografts (TUNEL, PCNA, Pt-DNA adduct, western blot); format: in vivo, mice; settings: tumor lysates after three doses
Molecule,"blood cell counts (RBC, PLT, WBC, HCT, HGB) vs untreated control [1]",ALT [1],AST [1],BUN [1],Creatinine [1],EE into PLGA NP [2],IC50 (A375-luc cells),IC50 (A375-luc cells; 48 h),IC50 (UMUC3 cells),expression of ERCC1 and XPA (western blot) [3]
"[NH2][Pt]([NH2])([Cl])[Cl] [CDDP, cisplatin]",significantly reduced,59 ± 1 U/L,216 ± 15 U/L,25 ± 1 mg/dL,0.2 mg/dL,74.0±10.1%,10 µM,,,
"CO[C@H]1C[C@@H]2CC[C@@H](C)[C@@](O)(O2)C(=O)C(=O)N2CCCC[C@H]2C(=O)O[C@H]([C@H](C)C[C@@H]2CC[C@@H](O)[C@H](OC)C2)CC(=O)[C@H](C)/C=C(\C)[C@@H](O)[C@@H](OC)C(=O)[C@H](C)C[C@H](C)/C=C/C=C/C=C/1C [RAPA, rapamycin]",,,,,,,,16 µM,,
Gemcitabine monophosphate [GMP],significantly reduced,47 ± 3 U/L,122 ± 20 U/L,24 ± 2 mg/dL,0.2 mg/dL,70.6±2.5%,,,34.8 µM,down-regulation
